Measured values published in ChEMBL document CHEMBL1149915, “Natural products as leads to potential drugs: an old process or the new hope for drug discovery?” (J Med Chem, 2008).

Assays:
[1] = Inhibition of inositol 1,4,5-triphosphate 3-kinase
[2] = target: Cyclin-dependent kinase 1/cyclin B1 (Homo sapiens, UniProt P06493); assay: Inhibition of Cdk1/cyclin B
[3] = Inhibition of cyclin dependent kinase
[4] = Inhibition of beta-arylsulfotransferase 4
[5] = target: Cyclin-dependent kinase 2 (Homo sapiens, UniProt P24941); assay: Inhibition of Cdk2/cyclin A

Cyclin-dependent kinase 1/cyclin B1, sequence (P06493 whole entry): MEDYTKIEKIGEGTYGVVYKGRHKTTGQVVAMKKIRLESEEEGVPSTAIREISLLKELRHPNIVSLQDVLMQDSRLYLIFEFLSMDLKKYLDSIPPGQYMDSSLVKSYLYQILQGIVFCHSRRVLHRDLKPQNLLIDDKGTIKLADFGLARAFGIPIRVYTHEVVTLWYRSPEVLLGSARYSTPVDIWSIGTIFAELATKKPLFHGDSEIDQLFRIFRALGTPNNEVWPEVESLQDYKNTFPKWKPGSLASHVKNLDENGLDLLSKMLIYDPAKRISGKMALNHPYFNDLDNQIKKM
Cyclin-dependent kinase 1/cyclin B1, sequence (P14635 whole entry, further chain): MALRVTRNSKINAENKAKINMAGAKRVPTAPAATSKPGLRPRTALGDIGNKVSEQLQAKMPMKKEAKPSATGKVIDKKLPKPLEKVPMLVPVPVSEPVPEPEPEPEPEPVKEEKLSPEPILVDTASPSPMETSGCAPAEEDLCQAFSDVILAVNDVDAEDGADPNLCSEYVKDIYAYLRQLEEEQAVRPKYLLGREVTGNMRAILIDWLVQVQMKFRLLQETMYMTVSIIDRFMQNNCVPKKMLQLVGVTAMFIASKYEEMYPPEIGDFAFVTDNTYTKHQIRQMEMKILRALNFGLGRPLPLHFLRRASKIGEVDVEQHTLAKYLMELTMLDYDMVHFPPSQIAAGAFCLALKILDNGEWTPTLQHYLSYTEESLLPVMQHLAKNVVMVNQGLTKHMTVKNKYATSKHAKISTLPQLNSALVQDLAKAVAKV

IC50 [3] [µM]	Compound	further results
–	O=[N+]([O-])c1ccc(CNc2nc(NCc3cccc(C(F)(F)F)c3)nc3[nH]cnc23)cc1	IC50 [1]: 10.2 µM; IC50 [2]: > 100 µM
0.004	CC[C@H](CO)Nc1nc(Nc2cc(Cl)cc(C(=O)O)c2)c2ncn(C(C)C)c2n1	–
0.004	CC[C@H](CO)Nc1nc(Nc2cccc(Cl)c2)c2ncn(C(C)C)c2n1	–
1000	Cn1cnc2c(NCc3ccccc3)nc(NCCO)nc21 [OLOMOUCINE]	–
–	Clc1nc(NCc2cccc3ccccc23)c2nc[nH]c2n1	Ki [4]: 0.096 µM
–	OCCn1cnc2c(NCc3ccccc3)nc(NCc3ccc(Br)cc3)nc21	IC50 [5]: 20 µM

Compound	IC50 [3] [µM]	further results
CC[C@H](CO)Nc1nc(NCc2ccccc2)c2ncn(C(C)C)c2n1 [SELICICLIB]	0.45	–
